In patent US7414068B2, “Benzopyran derivatives substituted with secondary amines including tetrazole, method for the preparation thereof and pharmaceutical compositions containing them” (Dongbu Hannong Chemical Co., Ltd., priority 2002, dated 2008):

What was measured:
[1] = system: isolated rat aorta; assay: Vasodilating effect on blood vessel excised from rats (methoxamine-constricted aorta); settings: isolated rat aorta constricted with methoxamine (3 μM); read-out: Concentration for inhibition of constriction induced by methoxamine in rat arota (IC50)
Method in brief: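 Endothelium-denuded rat thoracic aortic rings (3 mm) in Krebs-Henseleit buffer, 37 °C, carbogen, 2 g resting tension, primed twice with 10^−5 M phenylephrine. After maximal contraction with 3×10^−6 M methoxamine, compounds added cumulatively at 1, 3, 10, 30 μM. IC50 = concentration giving 50% relaxation of maximal constriction, by linear regression.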

[2] = system: cortical neuron cells; assay: Protective effect on hydrogen peroxide induced neuronal cell injury; type: cell-based; settings: hydrogen peroxide 30 μM
[3] = system: isolated ischemic rat heart; assay: Cardioprotective effect in ischemic heart models of rats (Langendorff); settings: 10 μM
Method in brief: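 Langendorff-perfused male rat hearts (Krebs-Henseleit, 85 mmHg, 37 °C) pretreated 10 min with compound or vehicle (0.04% DMSO), then 30 min global ischemia and 30 min reperfusion. Read-outs: LVDP, HR, CF, rate-pressure product, time to contracture (first 5 mmHg EDP rise), LDH release.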

[4] = system: HUVEC (Human Umbilical Vein Endothelial Cell); assay: Inhibitory effect against HUVEC tube formation; type: cell-based; design: key: −: no effect; +/−: slight effect; +: medium effect; ++: strong effect
Experimental: HUVEC (Human Umbilical Vein Endothelial Cell) were cultured, and tubulogenesis (tube formation) was induced in vascular endothelial cells by plating them onto the surface of Matrigel for several hours. The effect on tube formation of the test compounds were compared with the vehicle-treated control group, then confirmed their in-vitro anti-angiogenic effect indirectly.

[5] = system: cortical neuron cells; assay: Protective effect on iron-induced neuronal cell injury (LDH release); type: cell-based; settings: FeSO4 50 μM; for protective effect on neuron cell: Inhibition (%, 30 μM compound addition): LDH reduction vs control; for IC50: LDH
Method in brief: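 Embryonic (day 17–18) cortical neurons cultured 7–9 days, serum lowered to 0.2%, pretreated 30 min with compound (DMSO ≤0.1%), then exposed to 50 μM FeSO4 for 24 h. LDH released to medium measured; protection expressed as LDH reduction versus vehicle control.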

[6] = system: brain homogenate; assay: Inhibitory effect against lipid peroxidation by iron (MDA quantification); type: biochemical, rat; settings: 100 μM compound, FeCl2 400 μM, 37° C. 30 min
Experimental: The rat brain was homogenized in a Krebs buffer (15 mM HEPES, 10 mM glucose, 140 mM NaCl, 3.6 mM KCl, 1.5 mM CaCl2, 1.4 mM KH2PO4, 0.7 mM MgCl2, PH 7.4) and the supernatant separated by centrifugation at 12,000 rpm for 10 min was used for further experiments. FeCl2 was added for the final concentration to be 400 μM. Then the brain homogenate was allowed to stand at 37° C. for 30 min for the facilitation of oxidation. Each of the test compounds was added at a concentration of 100 μM. For control group, only vehicle was applied.
Iron facilitates the oxidation of the said brain homogenate to produce malondialdehyde (MDA), lipid peroxidation product. Thus, the lipid peroxidation was determined by MDA quantification. The inhibitory effect against lipid peroxidation of the test compounds was evaluated by calculating MDA reduction rate of the test compounds compared with that of the control group.
Typically, the MDA quantification is achieved by reacting samples with 2-thiobarbituric acid (TBA) and measuring the absorbance at 530 nm. However, this method is unsuitable to treat samples on a large scale because of a boiling step. Thus, in this experiment, N-methyl-2-phenylindole was used instead of TBA.

[7] = Acute oral toxicity test in rats; settings: SD, rat, in vivo, single oral dose, suspended in 0.5% methyl cellulose, read-out: lethal dose (LD50) for oral administration
Method in brief: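 Six-week-old SPF SD rats, two per group, received compounds orally as suspensions in 0.5% methyl cellulose. Endpoints were clinical signs, body weight, mortality, haematology, serum biochemistry and macroscopic necropsy of organs and tissues.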

[8] = system: RAW 264.7 cells; assay: Inhibitory effect on NO production (LPS, Griess reagent); type: cell-based, murine; settings: Mus musculus, RAW264.7, 24 h, Addition 30 μM, LPS 1 μg/ml, read-out: Inihibition (%) of NO production
Experimental: Using RPMI1640 media supplemented with 10% fetal bovine serum (FBS), RAW 264.7 cells (obtained from American Type Culture Collection), a murine macrophage cell line, were cultured at 37° C. in a 5% CO2 incubator. The RAW 264.7 cells were harvested and cell density was adjusted to 5×10^5 cell/ml with a RPMI media supplemented with 0.5% FBS and plated at 5×10^4 cell/well to 96-well plate, which were then cultured for 20 hours in a CO2 incubator. After removal of the media, the cells were pre-treated for 1 hour with fresh media containing 30 μM. The test compounds were dissolved in DMSO and diluted to respective concentration in the media. In order to minimize DMSO effect on the nitric oxide formation by the RAW 264.7 cells in the walls, the media were allowed to contain DMSO at a concentration of 0.1% or less.
After completion of one-hour pre-treatment, Lipopolysaccharide (E. coli serotype 055:B5) was added to activate the cells at a final concentration of 1 μg/ml, which were maintained for 24 hours in a CO2 incubator. As a result of the activation of RAW 264.7 cells with LPS, NO was formed. The NO release into the media was in a form of nitrite (NO2^−) and quantitatively measured using the Griess reagent. A control group was treated only with vehicle instead of test compounds.
The inhibitory effect of the test compounds against NO production were determined as the reduction of NO quantity compared with that of the control group.

[9] = system: Low density lipoprotein of human (human LDL); assay: Inhibitory effect against lipid peroxidation induced by copper (LDL oxidation, MDA); type: biochemical; settings: CuSO4 10 μM, 37° C. 18 hours
Experimental: Low density lipoprotein of human (human LDL, sigma) was dissolved in water to be final concentration of 1 mg/ml. To remove EDTA (ethylenediamine tetraacetate), the aqueous solution was dialyzed in phosphate buffer at 4° C. for 18 hours. At this dialysis, phosphate buffer was changed three times. Phosphate buffer was added to LDL (100 μg LDL protein/ml) which EDTA was removed from the aqueous solution, additionally thereto CuSO4 10 μM as oxidant was added. […] Group to which CUSO4 was not added was used as blank group. Group to which CUSO4 and vehicle were added in place of test compounds was used as control group. The mixture was incubated at 37° C. for 18 hours. EDTA […] was added to the mixture to terminate the oxidation reaction.
As shown in example 4, Cu^2+ facilitates the oxidation reaction to produce malondialdehyde (MDA), lipid peroxidation product. The MDA quantification is achieved by reacting samples with 2-thiobarbituric acid (TBA) and measuring the absorbance at 530 nm. Also, 1,1,3,3-tetramethoxypropane purchased from sigma was used as standard materials. Inhibitory effect against lipid peroxidation of the test compounds was measured by MDA (nmol) to protein (mg). Decrease of MDA to that of control group was calculated.

[10] = system: A7r5 (Rat thoracic aorta smooth muscle cell line, ATCC); assay: Inhibitory effect on accumulation of reactive oxygen species induced by hydrogen peroxide (DCF fluorescence); type: cell-based; settings: hydrogen peroxide 50 μM
Experimental: To measure reactive oxygen species, H2DCFDA (2′,7′-dichlorodihydrofluorescein diacetate, Molecular Probes, Eugene, Oreg., USA) was used. If H2DCFDA, nonpolar material is transferred through cell membrane, it is changed to H2DCF (2′,7′-dichlorodihydrofluorescein), material impermeable to membrane by intracellular esterase. H2DCF is changed to high fluorescent DCF (2′,7′-dichlorofluorescein) by low fluorescent peroxidated oxygen or hydroxyl radical. H2DCFDA solution (10 mM) dissolved in DMSO was used before the experiment. A7r5 (Rat thoracic aorta smooth muscle cell line, ATCC), as smooth muscle cell was incubated in DMEM (Dulbecco's Modified Eagle's Medium) containing 10% of FBS (fetal bovine serum). Thereafter, the cell was incubated in 48 well plate for two days, then was incubated in serum-free DMEM for 24 hours to use for experiment. Krebs-linger buffer (Krebs-Ringer (K-R), 99.01 mM NaCl, 4.69 mM KCl, 1.87 mM CaCl2, 1.2 mM MgSO4, 1.03 mM K2HPO4, 25 mM NaHCO3, 20 mM Hepes, 11.1 mM D-glucose, pH 7.4) was used for washing and process of cell monolayers. After cell monolayers media was removed, each of test compounds (0.2 ml) was pre-treated to media, then incubated at 37° C. for 15 min. Final concentration was 50 μM, hydrogen peroxide was added. The media was allowed to stand for 30 min. The said solution from media was removed. The media was washed one time. H2DCFDA 20 μM was added to the media. The media was allowed to stand for 30 min. the media was washed two times. Thereafter, oxidation of H2DCFDA was measured by Fluorescence reader (FL600, Biotech Instruments, 485 nm excitation, 530 nm emission).

CC1(C)Oc2ccc(C#N)cc2[C@@H](NC(=NC#N)Nc2ccc(Cl)cc2)[C@@H]1O [BMS-180448, reference compound]
IC50 [1]: 1380 nM
Inhibition(%) of hydrogen peroxide induced neuronal cell injury ([2]; Addition 30 μM): −5%
EDP (mmHg) ([3]; after 30 min global ischemia and reperfusion): 16.5 mmHg
LDH (u/g) ([3]; reperfusion LDH release): 17.2 u/g
LVDP X HR (%) ([3]; reperfusion, % of pre-treatment DP): 67.6%
TTC ([3]; time to contracture during global ischemia): 27.8 min

COC(OC)[C@@]1(C)Oc2ccc([N+](=O)[O-])cc2[C@H](N(Cc2nnn(C)n2)c2ccc(Cl)cc2)[C@H]1O [Example 2, (2S,3R,4S)-6-nitro-4-[N-(4-chlorophenyl)-N-(2-methyl-2H-tetrazol-5-ylmethyl)amino]-3-hydroxy-2-methyl-2-dimethoxymethyl-3,4-dihydro-2H-1-benzopyran]
Tube formation (inhibitory effect) ([4]; 10 μM): +
Tube formation (inhibitory effect) ([4]; 100 μM): ++

COC(OC)[C@@]1(C)Oc2ccc(N)cc2[C@H](N(Cc2nnn(C)n2)c2ccc(C)cc2)[C@H]1O [Example 28, (2S,3R,4S)-6-amino-4-[N-(4-methylphenyl)-N-(2-methyl-2H-tetrazol-5-ylmethyl)amino]-3-hydroxy-2-methyl-2-dimethoxymethyl-3,4-dihydro-2H-1-benzopyran]
IC50 [1]: > 30000 nM
protective effect on neuron cell: Inhibition (%, 30 μM compound addition) ([5]; 24 hours): 103%
IC50 ([5]; Cortical neurone, 24 h): 4100 nM
inhibitory effect against lipid peroxidation induced by iron (%, 100 μM) [6]: 83%
Tube formation (inhibitory effect) ([4]; 10 μM): +/−
Tube formation (inhibitory effect) ([4]; 100 μM): +
LD50 [7]: > 2000 mg/kg

COC(OC)[C@@]1(C)Oc2ccc([N+](=O)[O-])cc2[C@H](N(Cc2nnn(C)n2)c2ccccc2O)[C@H]1O [Example 60, (2S,3R,4S)-6-nitro-4-[N-(2-hydroxyphenyl)-N-(2-methyl-2H-tetrazol-5-ylmethyl)amino]-3-hydroxy-2-methyl-2-dimethoxymethyl-3,4-dihydro-2H-1-benzopyran]
protective effect on neuron cell: Inhibition (%, 30 μM compound addition) ([5]; 24 hours): 87%
IC50 ([5]; Cortical neurone, 24 h): < 1000 nM
IC50 ([5]; 24 hours): 700 nM
inhibitory effect against lipid peroxidation induced by iron (%, 100 μM) [6]: 85%
inhibition at 30 µM [8]: > 75%
LD50 [7]: > 2000 mg/kg

CC(C)(Sc1cc(C(C)(C)C)c(O)c(C(C)(C)C)c1)Sc1cc(C(C)(C)C)c(O)c(C(C)(C)C)c1 [Probucol]
Inhibitory effect(%) against lipid peroxidation induced by copper ([9]; Addition 10^−5 M): 66.7%
Inhibitory effect(%) against lipid peroxidation induced by copper ([9]; Addition 10^−6 M): 58.7%
Inhibitory effect(%) against lipid peroxidation induced by copper ([9]; Addition 10^−7 M): 33.7%

CC(CN1c2ccccc2Sc2ccccc21)N(C)C (stereo not shown) [Promethazine]
Inhibition(%) of hydrogen peroxide induced neuronal cell injury ([2]; Addition 5 μM): 97%

CCCOC(=O)c1cc(O)c(O)c(O)c1 [Propyl gallate, reference compound]
Inhibition(%) of hydrogen peroxide induced neuronal cell injury ([2]; Addition 10 μM): 94%
Inhibitory(%) against reactive oxygen species accumulation ([10]; addition 3 μM): 57%
Inhibitory(%) against reactive oxygen species accumulation ([10]; addition 10 μM): 94%
Inhibitory(%) against reactive oxygen species accumulation ([10]; addition 30 μM): 108%

tocopherol
Inhibitory effect(%) against lipid peroxidation induced by copper ([9]; Addition 10^−5 M): 29.7%
Inhibitory effect(%) against lipid peroxidation induced by copper ([9]; Addition 10^−7 M): 21.3%
